Measurements from US20240366550A1, “Drug for Treating Prostatitis or Benign Prostatic Hyperplasia (BPH)” (Beijing University of Chemical Technology, priority 2021, published 2024).
Read-outs that look alike come from different tables or passages of the source.

What was measured:
in vivo = settings: po
prostatic hyperplasia = settings: of 55 subjects in total
Description: (§1) General information: this group of patients included 117 cases, aged 18 to 52 years old, with an average age of 34.5 years, and their disease duration ranged from 2 months to 5 years.
(§2) Treatment method: 10 mg of SFA per day for 4 to 6 weeks.

[1] = system: chronic bacterial prostatitis (type-II prostatitis patients)
Description: as §1, §2
Criteria for determining efficacy: the patients were scored according to the Chronic Prostatitis Score (NIH2CPSI) of the National Institutes of Health (NIH); the efficacy was determined based on the patient's symptoms, routine examination results of prostate fluid obtained by massage, and VB3 and EPS bacterial culture results obtained by the Meares-Stamey four-cup test.

clinical = settings: male, human, po, 10 mg
Description: The drug concentration of SFA in vivo was determined in 9 cases of the 115 patients: the patients took 10 mg of SFA orally every day for 3 consecutive days.

[2] = number of patients relieved/total number of patients
[3] = of the remaining 95 cases taking the drug for 6 weeks

For `C[S+]([O-])CCCCN=C=S` (centres unmarked) [SFA, Sulforaphane], the bioavailability (in vivo) was 90%, the “Number of subjects, prostatic hyperplasia: Cured” value (prostatic hyperplasia) was 52 and the “Number of subjects, prostatic hyperplasia: Effective” value (prostatic hyperplasia) was 2. For the same compound, the “Number of subjects, prostatic hyperplasia: Ineffective” value (prostatic hyperplasia) was 1, the total effective rate ([1]; 12 patients infected with Escherichia coli, 11 with Streptococcus agalactiae, 8 with Streptococcus faecalis) was 10000 and the total effective rate ([1]; 115 patients, 4 to 6 weeks) was 88.7%. The Urination symptom score ([1]; after treatment, 10 mg SFA per day for 4 to 6 weeks, before treatment 6.8 ± 1.1, P<0.01) was 3.2 ± 1.1, the “Quality of life score” value ([1]; after treatment, 10 mg SFA per day for 4 to 6 weeks, before treatment 15.2 ± 4.6, P<0.01) was 7.5 ± 1.3 and the “Pain and discomfort score” value ([1]; after treatment, 10 mg SFA per day for 4 to 6 weeks, before treatment 15.3 ± 2.6, P<0.01) was 10.3 ± 3.2. For the same compound, the NIH-CPSI score ([1]; after treatment, 10 mg SFA per day for 4 to 6 weeks, before treatment 35.2 ± 3.3, P<0.01) was 20.1 ± 5.6, the “White blood cells in prostatic fluid obtained by massage: Negative” value ([1]; after treatment, before treatment 0) was 32 number of people and the “White blood cells in prostatic fluid obtained by massage: ++++” value ([1]; after treatment, before treatment 14) was 4 number of people. The “White blood cells in prostatic fluid obtained by massage: +++” value ([1]; after treatment, before treatment 28) was 9 number of people, the “White blood cells in prostatic fluid obtained by massage: +” value ([1]; after treatment, before treatment 31) was 49 number of people and the “White blood cells in prostatic fluid obtained by massage: ++” value ([1]; after treatment, before treatment 44) was 21 number of people. The “Relieving rate, distending pain and discomfort in the suprapubic region” value [1, 2] was 82.9%, the “Relieving rate, ejaculation pain” value [1, 2] was 81.2% and the “Relieving rate, feeling of incomplete urination” value [1, 2] was 67.1%. For the same compound, the “Relieving rate, frequent urination” value [1, 2] was 80.2%, the “Relieving rate, labored urination” value [1, 2] was 72.6% and the “Relieving rate, penis pain” value [1, 2] was 77.3%. The “Relieving rate, perineum pain” value [1, 2] was 69.5%, the “Relieving rate, urgent urination” value [1, 2] was 81.3% and the “Relieving rate, white urine” value [1, 2] was 91.2%. The “cases cured within 4 weeks of taking the drug” value ([1]; of 115 patients who completed treatment, 10 mg per day) was 20 cases, the cases cured [1, 3] was 15 cases and the cases effective [1, 3] was 23 cases. It also gave a cases ineffective [1, 3] of 13 cases, a cases markedly effective [1, 3] of 44 cases and a concentration at 6 h (clinical; blood) of 50.6 to 182 ng/mL. The concentration at 6 h (clinical; prostatic fluid obtained by massage) was 13.5 to 22.8 ng/mL and the concentration at 6 h (clinical; semen) was 2.6 to 5.5 ng/mL.
